Literature values as cited in article PMC5014530 (Molecular Therapy. Nucleic Acids, 2016).

Tested on: mitochondrial membranes

## (KLAKLA)2
  Mechanism of apoptosis induction: disrupts mitochondrial membranes to cause apoptosis
